The target in one test is LIMK1 (Homo sapiens (Human), UniProt P53667). Briefly: Lanthascreen Eu binding assay (TR-FRET), inhibition of LIMK1. (In TR-FRET formats the signal depends on donor and acceptor labels being close together.)
The target in the next test is LIMK2 (Homo sapiens (Human), UniProt P53671). As to the kind of experiment: Lanthascreen Eu binding assay (TR-FRET), inhibition of LIMK2.
In the next test the target is ROCK1 (Homo sapiens (Human), UniProt Q13464). Briefly: Z'Lyte assay, ROCK1 inhibition at a single concentration. In kind it is biochemical.
The target of a further test is ROCK2 (Homo sapiens (Human), UniProt O75116). Briefly: Z'Lyte assay, ROCK2 inhibition at a single concentration. It counts as biochemical.
Setting [1] is: read-out: % inhibition (ROCK1) 1 uM, 1 uM.
The mark [2] stands for this setting: read-out: % inhibition (ROCK2) 1 uM, 1 uM.
Setting [3] is: read-out: % inhibition (ROCK1) 1 uM.
[4] abbreviates: read-out: % inhibition (ROCK2) 1 uM.

Experimental findings from patent publication US20230312576A1, “4-(7H-PYRROLO[2,3-D]PYRIMIDIN-4-YL)-3,6-DIHYDROPYRIDINE-1-(2H)-CARBOXAMIDE DERIVATIVES AS LIMK AND/OR ROCK KINASES INHIBITORS FOR USE IN THE TREATMENT OF CANCER” (CENTRE NATIONAL DE LA RECHERCHE SCIENTIFIQUE, priority 2020, published 2023) are described below.

Usually Ki stands for the equilibrium dissociation constant of an inhibitor or competing ligand from its target. Read a high Ki as a looser hold on the target. As a reminder, the inhibition is the change of the read-out against control, counted positive when it falls.

Like-named read-outs stand apart in the source and are kept apart here.

Sequence of LIMK2 (P53671 whole entry): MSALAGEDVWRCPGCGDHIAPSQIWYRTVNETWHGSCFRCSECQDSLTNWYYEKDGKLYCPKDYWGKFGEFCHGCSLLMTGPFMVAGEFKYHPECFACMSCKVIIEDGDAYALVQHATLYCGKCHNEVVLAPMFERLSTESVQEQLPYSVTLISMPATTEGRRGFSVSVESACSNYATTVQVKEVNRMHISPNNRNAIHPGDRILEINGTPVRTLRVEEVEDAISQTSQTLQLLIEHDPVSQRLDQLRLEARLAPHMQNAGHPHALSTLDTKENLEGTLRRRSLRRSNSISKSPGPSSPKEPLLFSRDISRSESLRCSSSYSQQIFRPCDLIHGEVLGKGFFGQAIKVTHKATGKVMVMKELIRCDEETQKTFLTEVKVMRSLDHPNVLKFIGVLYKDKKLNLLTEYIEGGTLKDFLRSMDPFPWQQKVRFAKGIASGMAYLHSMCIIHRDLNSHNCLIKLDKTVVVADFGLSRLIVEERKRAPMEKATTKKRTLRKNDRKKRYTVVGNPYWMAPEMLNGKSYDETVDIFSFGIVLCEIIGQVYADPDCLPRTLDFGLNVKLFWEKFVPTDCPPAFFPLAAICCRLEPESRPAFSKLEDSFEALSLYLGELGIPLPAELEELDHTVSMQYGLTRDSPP
Sequence of LIMK1 (P53667 whole entry): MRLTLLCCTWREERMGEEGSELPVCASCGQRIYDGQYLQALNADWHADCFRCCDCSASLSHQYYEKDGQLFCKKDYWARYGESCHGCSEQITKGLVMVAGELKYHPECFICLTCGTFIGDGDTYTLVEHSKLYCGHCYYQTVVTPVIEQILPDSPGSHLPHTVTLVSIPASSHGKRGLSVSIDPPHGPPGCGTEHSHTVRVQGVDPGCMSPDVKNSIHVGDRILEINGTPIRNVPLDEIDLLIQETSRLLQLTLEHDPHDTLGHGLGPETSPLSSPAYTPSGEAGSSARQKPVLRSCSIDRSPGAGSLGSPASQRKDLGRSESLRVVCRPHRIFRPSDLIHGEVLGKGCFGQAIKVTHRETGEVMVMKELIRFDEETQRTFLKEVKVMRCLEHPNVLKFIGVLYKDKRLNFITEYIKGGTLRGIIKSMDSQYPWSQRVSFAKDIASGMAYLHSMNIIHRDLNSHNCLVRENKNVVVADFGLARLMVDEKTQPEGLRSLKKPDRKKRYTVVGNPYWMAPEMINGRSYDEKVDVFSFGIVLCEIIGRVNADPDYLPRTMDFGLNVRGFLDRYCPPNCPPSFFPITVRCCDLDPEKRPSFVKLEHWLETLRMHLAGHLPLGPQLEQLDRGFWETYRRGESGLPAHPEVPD
Sequence of ROCK1 (Q13464 whole entry): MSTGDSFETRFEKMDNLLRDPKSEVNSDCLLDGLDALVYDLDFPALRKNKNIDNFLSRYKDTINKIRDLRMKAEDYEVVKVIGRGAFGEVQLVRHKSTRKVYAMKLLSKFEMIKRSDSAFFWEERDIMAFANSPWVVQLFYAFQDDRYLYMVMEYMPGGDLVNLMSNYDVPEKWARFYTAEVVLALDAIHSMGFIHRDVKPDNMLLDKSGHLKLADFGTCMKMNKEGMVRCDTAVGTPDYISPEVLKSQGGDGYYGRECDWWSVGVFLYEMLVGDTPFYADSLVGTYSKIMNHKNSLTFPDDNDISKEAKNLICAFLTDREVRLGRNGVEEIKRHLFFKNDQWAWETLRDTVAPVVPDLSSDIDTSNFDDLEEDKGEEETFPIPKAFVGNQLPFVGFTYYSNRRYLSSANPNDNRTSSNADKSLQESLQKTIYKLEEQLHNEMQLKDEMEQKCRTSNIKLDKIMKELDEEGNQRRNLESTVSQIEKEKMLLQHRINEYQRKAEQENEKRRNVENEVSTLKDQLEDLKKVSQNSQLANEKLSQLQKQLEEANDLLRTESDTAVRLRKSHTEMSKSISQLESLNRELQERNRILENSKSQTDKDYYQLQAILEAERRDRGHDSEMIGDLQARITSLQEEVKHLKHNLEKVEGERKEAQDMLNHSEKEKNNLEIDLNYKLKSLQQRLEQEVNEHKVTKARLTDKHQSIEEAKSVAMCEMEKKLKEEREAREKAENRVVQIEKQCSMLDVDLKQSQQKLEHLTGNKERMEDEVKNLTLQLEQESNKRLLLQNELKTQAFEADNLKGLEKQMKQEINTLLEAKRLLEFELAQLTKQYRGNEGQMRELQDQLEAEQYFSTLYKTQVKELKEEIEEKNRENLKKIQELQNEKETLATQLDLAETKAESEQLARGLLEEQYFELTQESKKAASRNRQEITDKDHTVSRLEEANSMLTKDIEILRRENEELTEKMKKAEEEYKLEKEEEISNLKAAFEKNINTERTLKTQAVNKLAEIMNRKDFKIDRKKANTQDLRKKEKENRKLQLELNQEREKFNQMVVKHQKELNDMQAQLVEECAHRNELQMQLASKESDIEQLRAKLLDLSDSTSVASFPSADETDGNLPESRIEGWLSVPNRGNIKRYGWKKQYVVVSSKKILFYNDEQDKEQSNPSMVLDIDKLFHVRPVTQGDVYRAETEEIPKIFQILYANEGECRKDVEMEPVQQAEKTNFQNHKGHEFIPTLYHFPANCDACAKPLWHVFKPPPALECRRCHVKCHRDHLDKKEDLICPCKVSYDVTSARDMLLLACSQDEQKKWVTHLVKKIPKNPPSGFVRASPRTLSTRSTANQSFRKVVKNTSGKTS
Sequence of ROCK2 (O75116 whole entry): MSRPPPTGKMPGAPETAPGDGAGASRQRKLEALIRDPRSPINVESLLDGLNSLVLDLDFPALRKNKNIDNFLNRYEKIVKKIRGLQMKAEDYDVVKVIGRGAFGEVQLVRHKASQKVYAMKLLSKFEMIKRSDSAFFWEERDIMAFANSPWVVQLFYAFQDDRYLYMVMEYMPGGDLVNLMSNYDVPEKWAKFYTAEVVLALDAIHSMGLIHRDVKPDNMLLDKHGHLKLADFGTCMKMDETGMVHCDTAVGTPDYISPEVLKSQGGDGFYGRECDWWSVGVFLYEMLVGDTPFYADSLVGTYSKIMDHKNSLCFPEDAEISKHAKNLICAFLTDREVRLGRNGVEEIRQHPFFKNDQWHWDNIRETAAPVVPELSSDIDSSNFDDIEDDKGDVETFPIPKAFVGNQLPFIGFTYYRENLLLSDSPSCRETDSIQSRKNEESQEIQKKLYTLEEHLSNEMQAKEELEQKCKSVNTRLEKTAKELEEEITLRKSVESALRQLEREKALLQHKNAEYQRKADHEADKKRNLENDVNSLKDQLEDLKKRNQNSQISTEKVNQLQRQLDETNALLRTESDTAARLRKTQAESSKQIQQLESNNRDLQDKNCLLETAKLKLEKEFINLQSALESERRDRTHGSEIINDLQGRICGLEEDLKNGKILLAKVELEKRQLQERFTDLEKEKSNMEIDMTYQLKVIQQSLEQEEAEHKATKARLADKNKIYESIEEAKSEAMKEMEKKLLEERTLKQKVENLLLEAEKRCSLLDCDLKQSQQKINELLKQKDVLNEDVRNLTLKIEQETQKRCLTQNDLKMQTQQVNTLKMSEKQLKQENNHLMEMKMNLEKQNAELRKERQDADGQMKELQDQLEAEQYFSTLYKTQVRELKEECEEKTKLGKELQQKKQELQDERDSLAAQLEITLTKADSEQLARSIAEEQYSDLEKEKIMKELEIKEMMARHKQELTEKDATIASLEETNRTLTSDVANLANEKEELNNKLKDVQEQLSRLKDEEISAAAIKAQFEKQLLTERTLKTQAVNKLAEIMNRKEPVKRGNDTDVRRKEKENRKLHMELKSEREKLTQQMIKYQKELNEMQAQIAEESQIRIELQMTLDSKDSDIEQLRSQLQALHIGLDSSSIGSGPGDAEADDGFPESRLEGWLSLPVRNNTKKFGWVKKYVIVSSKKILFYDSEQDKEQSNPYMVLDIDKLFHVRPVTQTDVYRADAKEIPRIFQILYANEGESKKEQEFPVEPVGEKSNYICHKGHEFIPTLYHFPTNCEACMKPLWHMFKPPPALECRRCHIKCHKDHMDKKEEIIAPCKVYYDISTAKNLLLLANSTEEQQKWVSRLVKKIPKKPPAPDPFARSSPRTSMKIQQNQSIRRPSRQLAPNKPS

For the compound `O=C(Nc1cccc(-c2ccncc2)c1)N1CC=C(c2ncnc3[nH]c4c(c23)CCC4)CC1` [Compound 124, N-(3-(Pyridin-4-yl)phenyl)-4-(5,6,7,8-tetrahydrocyclopenta [4,5]pyrrolo[2,3-d]pyrimidin-4-yl)-3,6-dihydropyridine-1(2H)-carboxamide], the results for the Ki on LIMK1 (Lanthascreen Eu binding assay) and on LIMK2 (Lanthascreen Eu binding assay) were 6.49 nM and 19.6 nM, respectively. Besides, the figures for the inhibition at 1 µM at ROCK1 (setting [1]) and on ROCK2 (setting [2]) were 7% and 2%, respectively.
For `Cc1c[nH]c2ncnc(C3=CCN(C(=O)Nc4cccc(OCCCN5CCN(C)CC5)c4)CC3)c12` [Compound 185, 4-(5-methyl-7H-pyrrolo[2,3-d]pyrimidin-4-yl)-N-(3-(3-(4-methylpiperazin-1-yl)propoxy)phenyl)-3,6-dihydropyridine-1(2H)-carboxamide] the same measures were 669 nM, 863 nM, 99% and 97%.
In the case of `COc1cccc(-c2cccc(NC(=O)N3CC=C(c4ncnc5[nH]c6c(c45)CCC6)CC3)c2)c1` [Compound 137, N-[3-(3-Methoxyphenyl)phenyl]-4-(7,9,11-triazatricyclo [6.4.0.02,6]dodeca-1(8),2(6),9,11-tetraen-12-yl)-3,6-dihydropyridine-1(2H)-carboxamide], the values for the Ki on LIMK1 (Lanthascreen Eu binding assay) and at LIMK2 (Lanthascreen Eu binding assay) were 4.97 nM and 8.59 nM, respectively. In addition, the inhibition at 1 µM at ROCK1 (setting [1]) was -1%; on ROCK2 (setting [2]) it was 4%.
Consider `CNC(=O)c1cc(Oc2cccc(NC(=O)N3CC=C(c4ncnc5[nH]cc(C)c45)CC3)c2)ccn1` [Compound 198, N-methyl-4-(3-(4-(5-methyl-7H-pyrrolo[2,3-d]pyrimidin-4-yl)-1,2,3,6-tetrahydropyridine-1-carboxamido)phenoxy)picolinamide], for which the Ki on LIMK1 (Lanthascreen Eu binding assay) came to 3.08 nM; at LIMK2 (Lanthascreen Eu binding assay), 2.89 nM. The results for the inhibition at 1 µM at ROCK1 (setting [1]) and at ROCK2 (setting [2]) were 79% and 65%, respectively.
Consider `Cc1c[nH]c2ncnc(C3=CCN(C(=O)Nc4cccc(Oc5cccc(Cl)c5)c4)CC3)c12` [Compound 204, N-(3-(3-chlorophenoxy)phenyl)-4-(5-methyl-7H-pyrrolo[2,3-d]pyrimidin-4-yl)-3,6-dihydropyridine-1(2H)-carboxamide], for which the Ki worked out at 50.5 nM on LIMK1 (Lanthascreen Eu binding assay) and 15.6 nM at LIMK2 (Lanthascreen Eu binding assay). Further, the inhibition at 1 µM at ROCK1 (setting [1]) worked out at 71%; on ROCK2 (setting [2]) it was 46%.
Consider `CC(C)(C)OC(=O)NCCCOc1cccc(-c2cccc(NC(=O)N3CC=C(c4ncnc5[nH]c6c(c45)CCC6)CC3)c2)c1` [Compound 164, tert-butyl (3-((3′-(4-(5,6,7,8-tetrahydrocyclopenta[4,5]pyrrolo[2,3-d]pyrimidin-4-yl)-1,2,3,6-tetrahydropyridine-1-carboxamido)-[1,1′-biphenyl]-3-yl)oxy)propyl)carbamate], for which the Ki on LIMK1 (Lanthascreen Eu binding assay) was determined as 48.4 nM; at LIMK2 (Lanthascreen Eu binding assay) it was 41.2 nM. Also, the inhibition at 1 µM was -2% on ROCK1 (setting [1]) and 4% at ROCK2 (setting [2]).
On to `CC(C)(C)OC(=O)NCCCOc1cccc(-c2cccc(NC(=O)N3CC=C(c4ncnc5[nH]cc(C6CC6)c45)CC3)c2)c1` [Compound 165, tert-butyl N-[3-[3-[3-[[4-(5-cyclopropyl-7H-pyrrolo[2,3-d]pyrimidin-4-yl)-3,6-dihydro-2H-pyridine-1-carbonyl]amino]phenyl]phenoxy]propyl]carbamate], for which the Ki worked out at 169 nM on LIMK1 (Lanthascreen Eu binding assay) and 58.1 nM on LIMK2 (Lanthascreen Eu binding assay). In addition, the inhibition at 1 µM on ROCK1 (setting [1]) was -2%; on ROCK2 (setting [2]), 7%.
For the compound `Cc1c[nH]c2ncnc(C3=CCN(C(=O)Nc4cccc(Oc5cccc(OC(=O)N(C)C)c5)c4)CC3)c12` [Compound 216, 3-(3-(4-(5-methyl-7H-pyrrolo[2,3-d]pyrimidin-4-yl)-1,2,3,6-tetrahydropyridine-1-carboxamido)phenoxy)phenyl dimethylcarbamate], the Ki stood at 4.88 nM at LIMK1 (Lanthascreen Eu binding assay) and 14.6 nM at LIMK2 (Lanthascreen Eu binding assay). For the same compound, the inhibition at 1 µM at ROCK1 (setting [3]) amounted to 71%; at ROCK2 (setting [4]) it was 56%.
For the compound `CC(=O)Nc1cccc(Oc2cccc(NC(=O)N3CC=C(c4ncnc5[nH]cc(C)c45)CC3)c2)c1` [Compound 219, N-(3-(3-acetamidophenoxy)phenyl)-4-(5-methyl-7H-pyrrolo[2,3-d]pyrimidin-4-yl)-3,6-dihydropyridine-1(2H)-carboxamide], the Ki at LIMK1 (Lanthascreen Eu binding assay) is 4.93 nM; at LIMK2 (Lanthascreen Eu binding assay), 5.46 nM. For the same compound, the inhibition at 1 µM on ROCK1 (setting [1]) was found to be 60%; on ROCK2 (setting [2]), 37%.
Regarding `Cc1c[nH]c2ncnc(C3=CCN(C(=O)Nc4cccs4)CC3)c12` [Compound 33, 4-(5-methyl-7H-pyrrolo[2,3-d]pyrimidin-4-yl)-N-(2-thienyl)-3,6-dihydro-2H-pyridine-1-carboxamide], the figures for the Ki at LIMK1 (Lanthascreen Eu binding assay) and on LIMK2 (Lanthascreen Eu binding assay) were 50.1 nM and 186 nM, respectively. Also, the inhibition at 1 µM was found to be 96% at ROCK1 (setting [1]) and 87% on ROCK2 (setting [2]).
Turning to `Cc1c[nH]c2ncnc(C3=CCN(C(=O)Nc4cccc(-c5cccc(OCCCNC(=O)OC(C)(C)C)c5)c4)CC3)c12` [Compound 166, tert-butyl N-[3-[3-[3-[[4-(5-methyl-7H-pyrrolo[2,3-d]pyrimidin-4-yl)-3,6-di hydro-2H-pyridine-1-carbonyl]amino]phenyl]phenoxy]propyl]carbamate], the Ki at LIMK1 (Lanthascreen Eu binding assay) is 94.6 nM; at LIMK2 (Lanthascreen Eu binding assay), 122 nM. Besides, the inhibition at 1 µM at ROCK1 (setting [1]) came out at 12%; at ROCK2 (setting [2]), 2%.
Regarding `CC1=CC(C)=[N+]2C1=Cc1ccc(CCC(=O)NCCCOc3cccc(-c4cccc(NC(=O)N5CC=C(c6ncnc7[nH]c8c(c67)CCC8)CC5)c4)c3)n1[B-]2(F)F` [Compound 167, N-(3′-(3-(3-(5,5-Difluoro-7,9-dimethyl-5H-dipyrrolo[1,2-c:2′,1′-f][1,3,2]diazaborinin-3-yl)propanamido)propoxy)-[1,1′-biphenyl]-3-yl)-4-(5,6,7,8-tetrahydrocyclopenta[4,5]pyrrolo[2,3-d]pyrimidin-4-yl)-3,6-dihydropyridine-1(2H)-carboxamide], the Ki on LIMK1 was found to be 112 nM; at LIMK2 it was 113 nM. Moreover, at ROCK1, the “% inhibition (ROCK1) 1 uM” value was −4%. Moreover, the “% inhibition (ROCK2) 1 uM” value on ROCK2 came out at 6%.
In the case of `Cc1c[nH]c2ncnc(C3=CCN(C(=O)NC4CCCc5ccccc54)CC3)c12` (racemic) [Compound 34-rac, 4-(5-methyl-7H-pyrrolo[2,3-d]pyrimidin-4-yl)-N-tetralin-1-yl-3,6-dihydro-2H-pyridine-1-carboxamide], the Ki at LIMK1 (Lanthascreen Eu binding assay) worked out at 610 nM; at LIMK2 (Lanthascreen Eu binding assay), 742 nM. The inhibition at 1 µM stood at 79% on ROCK1 (setting [3]) and 52% on ROCK2 (setting [4]).
With `Cc1c[nH]c2ncnc(C3=CCN(C(=O)Nc4cccc(Oc5cccc(N(C)C)c5)c4)CC3)c12` [Compound 177, N-(3-(3-(dimethylamino)phenoxy)phenyl)-4-(5-methyl-7H-pyrrolo[2,3-d]pyrimidin-4-yl)-3,6-dihydropyridine-1(2H)-carboxamide], the Ki at LIMK1 (Lanthascreen Eu binding assay) was 33.6 nM; on LIMK2 (Lanthascreen Eu binding assay), 150 nM. For the same compound, the inhibition at 1 µM at ROCK1 (setting [1]) was determined as 49%; on ROCK2 (setting [2]) it was 30%.
As for `CNC(=O)c1cc(Oc2ccc(NC(=O)N3CC=C(c4ncnc5[nH]cc(C)c45)CC3)cc2)ccn1` [Compound 196, N-methyl-4-(4-(4-(5-methyl-7H-pyrrolo[2,3-d]pyrimidin-4-yl)-1,2,3,6-tetrahydropyridine-1-carboxamido)phenoxy)picolinamide], the inhibition constant Ki on LIMK1 (Lanthascreen Eu binding assay) came out at 192 nM; at LIMK2 (Lanthascreen Eu binding assay), 49.3 nM. The inhibition at 1 µM came to 21% at ROCK1 (setting [1]) and 12% at ROCK2 (setting [2]).
For `Cc1c[nH]c2ncnc(C3=CCN(C(=O)Nc4cccc(Oc5cccc(O)c5)c4)CC3)c12` [Compound 213, N-(3-(3-hydroxyphenoxy)phenyl)-4-(5-methyl-7H-pyrrolo[2,3-d]pyrimidin-4-yl)-3,6-dihydropyridine-1(2H)-carboxamide], the results for the Ki on LIMK1 (Lanthascreen Eu binding assay) and on LIMK2 (Lanthascreen Eu binding assay) were 12.9 nM and 16.3 nM, respectively. The inhibition at 1 µM on ROCK1 (setting [1]) is 55%; on ROCK2 (setting [2]) it was 27%.
On to `CN1CCc2[nH]c3ncnc(C4=CCN(C(=O)Nc5cccc(Br)c5)CC4)c3c2C1` [Compound 162, N-(3-Bromophenyl)-4-(6-methyl-6,7,8,9-tetrahydro-5H-pyrido [3′,4′:4,5]pyrrolo[2,3-d]pyrimidin-4-yl)-3,6-dihydropyridine-1(2H)-carboxamide], for which the Ki was determined as 722 nM on LIMK1 and 1030 nM on LIMK2. The inhibition at 1 µM at ROCK1 (setting [3]) is 4%; at ROCK2 (setting [4]) it was -8%.
For the compound `Cc1c[nH]c2ncnc(C3=CCN(C(=O)Nc4cccc(OCCCNC(=O)OC(C)(C)C)c4)CC3)c12` [Compound 188, tert-Butyl (3-(3-(4-(5-methyl-7H-pyrrolo[2,3-d]pyrimidin-4-yl)-1,2,3,6-tetrahydropyridine-1-carboxamido)phenoxy)propyl)carbamate], the values for the Ki on LIMK1 (Lanthascreen Eu binding assay) and on LIMK2 (Lanthascreen Eu binding assay) were 65 nM and 50.8 nM, respectively. In addition, the inhibition at 1 µM on ROCK1 (setting [1]) amounted to 48%; at ROCK2 (setting [2]) it was 33%.
For `CCc1cccc(NC(=O)N2CC=C(c3ncnc4[nH]cc(C)c34)CC2)c1` [Compound 20, N-(3-Ethylphenyl)-4-(5-methyl-7H-pyrrolo[2,3-d]pyrimidin-4-yl)-3,6-dihydropyridine-1(2H)-carboxamide] the same measures were 162 nM, 193 nM, 55% and 28%.
Take `Cc1c[nH]c2ncnc(C3=CCN(C(=O)Nc4cccc(Oc5ccc(N(C)C)cc5)c4)CC3)c12` [Compound 42, N-[3-[4-(Dimethylamino)phenoxy]phenyl]-4-(5-methyl-7H-pyrrolo[2,3-d]pyrimidin-4-yl)-3,6-dihydro-2H-pyridine-1-carboxamide]: the values for the Ki at LIMK1 (Lanthascreen Eu binding assay) and at LIMK2 (Lanthascreen Eu binding assay) were 30.7 nM and 53.3 nM, respectively. Besides, the inhibition at 1 µM at ROCK1 (setting [1]) is 37%; at ROCK2 (setting [2]), 31%.
